Reference: paper PMC4935531 (Journal of Acquired Immune Deficiency Syndromes (1999), 2016)
Where two headings read alike, the source gives them in different places. One block for each compound: values may come before it.

Legend:
[1] = cited from earlier work
human PMAT = molecular target: T1, human PMAT (Homo sapiens, UniProt Q7RTT9); assay: Inhibition of probe substrate uptake by PMAT in transfected MDCK-II cells; type: in vitro ADME; conditions: dolutegravir ≤100 μM; 10 µM [14C]metformin
T1 sequence (Q7RTT9 1-530): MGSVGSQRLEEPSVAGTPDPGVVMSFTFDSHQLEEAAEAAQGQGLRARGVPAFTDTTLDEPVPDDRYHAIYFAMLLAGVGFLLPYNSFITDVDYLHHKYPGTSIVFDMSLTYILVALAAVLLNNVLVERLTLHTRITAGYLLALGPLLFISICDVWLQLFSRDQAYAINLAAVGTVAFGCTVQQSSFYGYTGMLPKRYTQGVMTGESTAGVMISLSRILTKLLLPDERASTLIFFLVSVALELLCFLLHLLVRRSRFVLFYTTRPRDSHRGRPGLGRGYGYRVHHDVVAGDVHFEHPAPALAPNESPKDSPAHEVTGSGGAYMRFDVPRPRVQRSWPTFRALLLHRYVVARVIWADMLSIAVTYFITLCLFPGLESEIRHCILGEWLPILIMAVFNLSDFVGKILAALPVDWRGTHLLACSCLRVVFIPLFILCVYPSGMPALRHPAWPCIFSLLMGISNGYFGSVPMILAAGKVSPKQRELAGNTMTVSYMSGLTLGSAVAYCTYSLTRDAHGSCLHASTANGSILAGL

OCT2 [2] = conditions: cited from earlier work
OCT1 = conditions: at 10 μM; cited from earlier work
human OCT3 = molecular target: T2, human OCT3 (Homo sapiens, UniProt O75751); assay: Inhibition of probe substrate uptake by OCT3 in transfected MDCK-II cells; type: in vitro ADME; conditions: dolutegravir ≤10 μM; 10 µM [14C]metformin
T2 sequence (O75751 1-556): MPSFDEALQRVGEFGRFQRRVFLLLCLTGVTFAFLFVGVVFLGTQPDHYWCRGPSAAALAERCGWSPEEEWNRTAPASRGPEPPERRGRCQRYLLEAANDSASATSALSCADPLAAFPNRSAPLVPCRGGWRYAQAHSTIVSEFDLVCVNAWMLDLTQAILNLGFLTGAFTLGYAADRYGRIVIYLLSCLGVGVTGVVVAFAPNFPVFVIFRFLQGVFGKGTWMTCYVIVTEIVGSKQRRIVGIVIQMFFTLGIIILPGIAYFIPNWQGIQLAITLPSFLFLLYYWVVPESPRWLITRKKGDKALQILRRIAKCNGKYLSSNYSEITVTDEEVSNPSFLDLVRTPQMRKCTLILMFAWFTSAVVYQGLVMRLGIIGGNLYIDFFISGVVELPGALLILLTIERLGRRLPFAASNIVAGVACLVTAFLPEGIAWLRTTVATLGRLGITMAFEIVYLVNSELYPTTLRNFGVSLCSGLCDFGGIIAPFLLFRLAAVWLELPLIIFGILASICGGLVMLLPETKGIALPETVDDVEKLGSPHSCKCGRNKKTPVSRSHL

Caco-2 cell monolayers = assay: Cellular uptake of [14C]metformin in Caco-2 cell monolayers; type: in vitro ADME; conditions: dolutegravir 0.3-100 µM
OCT2 [3] = conditions: cited from earlier work; remark: listed apart in the source
[4] = Safety monitoring: drug-related adverse events in healthy subjects; type: in vivo, human; conditions: metformin 500 mg q12h alone or with dolutegravir 50 mg q24h or q12h
[5] = type: in vivo, human; conditions: for Metformin t(1/2) with vs without co-administration of dolutegravir: dolutegravir 50 mg q24h or q12h
[6] = co-administration of cimetidine

Structure (SMILES): CN/C(=N/CCSCc1nc[nH]c1C)NC#N [Cimetidine]
Increase in metformin AUC [1, 6]: 40% | Increase in metformin peak concentration [1, 6]: 60%

Inhibition of [14C]metformin uptake by PMAT (human PMAT): no inhibition | Inhibition of [14C]metformin transport by OCT3 (human OCT3): no inhibition | Effect on cellular uptake of metformin in the Caco-2 intestinal cell line (Caco-2 cell monolayers): unaffected
Structure (SMILES): C[C@@H]1CCO[C@H]2Cn3cc(C(=O)NCc4ccc(F)cc4F)c(=O)c(O)c3C(=O)N12 [Dolutegravir]
Dolutegravir free fraction (OCT2 [2]): ≥ 1.1% | Cmax (OCT2 [2]; read-out: Dolutegravir Cmax, twice daily dosing): 13 µM | Inhibition of OCT1 (OCT1): 22% | IC50 (OCT2 [3]; read-out: IC50 for OCT2): 1.9 µM | IC50 (OCT2 [3]; read-out: OCT2 inhibitory potency, tetraethylammonium as the substrate): 0.066 µM

Decrease in metformin CL/F ([5]; co-administration of dolutegravir 50 mg q12h): 59% | Decrease in metformin CL/F ([5]; co-administration of dolutegravir 50 mg q24h): 44% | Metformin t(1/2) with vs without co-administration of dolutegravir [5]: unchanged | Metformin t(1/2) with vs without co-administration of dolutegravir ([5]; listed as metformin): similar
Structure (SMILES): CN(C)C(=N)N=C(N)N [Metformin]
Tolerability [4]: well tolerated | Fraction of drug excreted unchanged in the urine ([1]; within 24 hours, oral and intravenous administration): 90%
